{"source": "patent US7884123B2", "about": "“Substituted thieno[2,3-c]pyrazoles, process for preparing them, compositions containing them, and use thereof” (Aventis Pharma S.A., priority 2004, dated 2011)", "key": {"CDK2/cycline E": {"biological_target": "T1, CDK2/cycline E (Homo sapiens, UniProt P24941)", "T1 construct": "made in house; host or cells: Sf21 insect cells (baculovirus coinfection)", "assay": "CDK2/cyclineE Flashplate test in 96-well format", "type": "biochemical", "procedure": "Purification of the CDK2/cyclineE-(His)6 Complex by IMAC (Immobilized Metal Affinity Chromatography):\nTwo recombinant baculoviruses bearing the human sequences coding, respectively, for CDK2 and cyclineE (the latter bearing a C-terminal hexahistidine tag) are used to coinfect Sf21 insect cells. Two to three days after the start of coinfection, the cells are harvested by centrifugation and then stored at −40° C. until the time of use. After thawing and mechanical lysis of the cells, the complex present in the lysis supernatant is purified by affinity chromatography on nickel (IMAC), and stored at −80° C.\nCDK2/cyclineE Flashplate Test in 96-Well Format.\nA format in streptavidin-coated 96-well plates is used to test the activity of the compounds on the kinase activity of CDK2/cycline E.\nTo perform this test, the biotinylated peptide substrate, a fragment of the protein pRb (biotinyl-[…]—OH) (SEQ ID NO: 1), is dissolved at a concentration of 1 mM in kinase buffer (HEPES/NaOH 50 mM, NaCl 1 mM, MgCl2 5 mM, pH 7.5) in order to constitute a stock solution stored at −20° C. in the form of 110 μL aliquots. On the day of the experiment, an aliquot of this solution is thawed and diluted in kinase buffer containing 1 mM of dithiothreitol, added to the buffer extemporaneously, in order to obtain a concentration of 14.3 μM. 70 μL of this solution are added to each well of the Flashplate in order to obtain a final substrate concentration of 10 μM during the enzymatic reaction performed in a final volume of the reaction medium of 100 μL (cf. below).\nIntermediate dilutions of inhibitors (products of the invention) at various concentrations are prepared in DMSO from stock solutions at 10 mM in separate tubes. […]\nWhen the incubation is complete, the plate is washed three times with 300 μL per well of PBS (phosphate-buffered saline, pH=7.4, without calcium or magnesium, reference 10010-015, Gibco BRL). The incorporation of ^33P to the peptide is quantified by scintillation counting with a Packard Topcount.NXT machine. […]"}, "Aurora2": {"biological_target": "T2, Aurora2 (Homo sapiens, UniProt O14965)", "T2 construct": "A complete recombinant Aurora2 enzyme, the N-terminal of which was labeled with histidine, was expressed in E. coli; His tag (N); made in house; host or cells: E. coli", "T2 sequence (O14965 1-403)": "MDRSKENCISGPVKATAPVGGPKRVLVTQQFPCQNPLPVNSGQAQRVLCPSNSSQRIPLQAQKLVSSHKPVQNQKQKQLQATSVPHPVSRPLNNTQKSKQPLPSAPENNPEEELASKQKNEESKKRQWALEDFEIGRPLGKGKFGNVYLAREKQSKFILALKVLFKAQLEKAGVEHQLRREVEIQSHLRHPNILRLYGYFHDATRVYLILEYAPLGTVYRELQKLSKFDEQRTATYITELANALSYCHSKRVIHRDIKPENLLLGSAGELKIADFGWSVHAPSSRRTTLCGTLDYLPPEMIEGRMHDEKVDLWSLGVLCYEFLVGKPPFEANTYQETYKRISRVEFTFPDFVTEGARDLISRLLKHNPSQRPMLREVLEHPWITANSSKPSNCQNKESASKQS", "assay": "Aurora2 kinase radioactivity scintillation test using nickel chelate", "type": "biochemical", "procedure": "The inhibitory effect of the compounds toward the kinase Aurora2 is determined via a radioactivity scintillation test using nickel chelate.\nA complete recombinant Aurora2 enzyme, the N-terminal of which was labeled with histidine, was expressed in E. coli and purified to a quality close to homogeneity.\nThe C-terminal fragment (Q1687-H2101) of an NuMA (Nuclear protein which is associated with the Mitotic Apparatus) expressed in E. coli, and the N-terminal end of which was labeled with histidine, was purified by nickel chelate chromatography and used as substrate in the Aurora2 kinase test.\nTo determine the kinase activity, the substrate NuMA is equilibrated by chromatography on a PD10 Pharmacia column, in a buffer (50 mM Tris-HCl, pH 7.5, 50 mM NaCl, 10 mM MgCl2) supplemented with 10% (v/v) of glycerol and 0.05% (w/v) of NP40.\nThe kinase activity of Aurora2 is measured by scintillation with nickel chelate (New England Nuclear, SMP107 model). Each well contains 100 μl of the following solution: 0.02 μM of Aurora2; 0.5 μM of NuMA substrate; 1 μM of ATP supplemented with 0.5 μCi of ATP-[^33P]. The solutions are incubated for 30 minutes at 37° C. The test buffer is then removed and the wells are rinsed twice with 300 μl of kinase buffer. The radioactivity is measured in each well using a Packard Model Top Count NXT machine.\nThe background noise is deduced by measuring radioactivity measured in duplicate in wells containing the radioactive ATP alone containing buffered kinase treated in the same manner as for the other samples.\nThe activity of the control is determined by measuring in duplicate the radioactivity in the complete test mixture (ATP, Aurora2 and substrate NuMA), in the absence of test compound.\nThe inhibition of the activity of Aurora2 with a compound of the invention is expressed as a percentage of inhibition of the control activity in the absence of test compound. Staurosporin is added to each plate as inhibition control.\nThe activity of the products was determined by measuring the inhibition of Aurora2 activity."}, "human Tie2": {"biological_target": "T3, human Tie2 (Homo sapiens, UniProt Q02763)", "T3 construct": "amino acids of the intracellular domain 776-1124; made in house; host or cells: baculovirus expression (pFastBacGT vector)", "T3 sequence (Q02763 776-1124)": "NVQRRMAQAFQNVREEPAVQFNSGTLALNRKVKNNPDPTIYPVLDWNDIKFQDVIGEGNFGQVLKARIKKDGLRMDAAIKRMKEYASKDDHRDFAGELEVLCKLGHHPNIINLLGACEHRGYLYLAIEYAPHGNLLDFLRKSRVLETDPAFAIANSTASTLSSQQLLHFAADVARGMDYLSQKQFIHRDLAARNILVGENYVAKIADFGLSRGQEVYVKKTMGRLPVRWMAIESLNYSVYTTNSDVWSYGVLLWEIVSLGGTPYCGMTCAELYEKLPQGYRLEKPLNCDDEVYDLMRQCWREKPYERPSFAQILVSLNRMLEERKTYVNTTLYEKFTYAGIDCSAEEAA", "assay": "Test of phosphorylation of PLC with Tie2 (GST-Tie2)", "type": "biochemical", "procedure": "The coding sequence of human Tie2 corresponding to the amino acids of the intracellular domain 776-1124 was generated by PCR using the cDNA isolated from a human placenta as a model. This sequence was introduced into a pFastBacGT baculovirus expression vector in the form of a GST fusion protein.\nThe inhibitory effect of the molecules is determined in a test of phosphorylation of PLC with Tie2 in the presence of GST-Tie2 purified to about 80% homogeneity. The substrate is composed of the SH2-SH3 fragments of PLC expressed in the form of a GST fusion protein.\nThe kinase activity of Tie2 is measured in a MOPS 20 mM pH 7.2 buffer, containing 10 mM MgCl2, 10 mM MnCl2, 1 mM DTT, 10 mM of glycerophosphate. In a 96-well FlashPlate plate maintained on ice, a reaction mixture is deposited, composed of 70 μL of kinase buffer containing 100 ng of enzyme GST-Tie2 per well. Next, 10 μL of the test molecule diluted in DMSO to a maximum concentration of 10% are added. For a given concentration, each measurement is performed four times. The reaction is initiated by adding 20 μL of solution containing 2 μg of GST-PLC, 2 μm of cold ATP and 1 μCi of ^33P [ATP]. […] The radioactivity is measured on a MicroBeta1450 Wallac.\nThe inhibition of the Tie2 activity is calculated and expressed as a percentage of inhibition relative to the control activity determined in the absence of compound."}}, "note": "Structures can show the parent of a compound that is named as a salt.", "data": [{"smiles": "O=C(NOc1ccccc1)c1cc2c(-c3cc4ccccc4[nH]3)n[nH]c2s1", "note": "[Example 1, 3-(1H-indol-2-yl)-1H-thieno[2,3-c]pyrazole-5-(N-phenoxycarboxamide)]", "values": [{"measurement": "IC50", "setting": "CDK2/cycline E", "result": "< 100", "unit": "nM"}, {"measurement": "melting point", "result": 171, "unit": "°C"}, {"measurement": "IC50", "setting": "Aurora2", "result": "< 50", "unit": "nM"}]}, {"smiles": "O=C(NOc1ccccc1)c1cc2c(/C=C/c3ccccc3)n[nH]c2s1", "note": "[Example 2]", "values": [{"measurement": "IC50", "setting": "CDK2/cycline E", "result": 522, "unit": "nM"}, {"measurement": "melting point", "result": 142, "unit": "°C"}, {"measurement": "IC50", "setting": "Aurora2", "result": "< 50", "unit": "nM"}]}, {"smiles": "O=C(Nc1n[nH]c2sc(C(=O)NOc3ccccc3)cc12)c1cccs1", "note": "[Example 3, 3-[(thiophene-2-carbonyl)amino]-1H-thieno[2,3-c]pyrazole-5-(N-phenoxycarboxamide)hydrochloride]", "values": [{"measurement": "IC50", "setting": "CDK2/cycline E", "result": "< 500", "unit": "nM"}, {"measurement": "IC50", "setting": "human Tie2", "result": "< 500", "unit": "nM"}, {"measurement": "IC50", "setting": "Aurora2", "result": "< 50", "unit": "nM"}]}]}
